According to patent US8088808B2, “Substituted N-phenyl-bipyrrolidine carboxamides and therapeutic use thereof” (Sanofi, priority 2007, dated 2012):
Counter-ions that a name gives are not always drawn.

Tests used:
[1] = target: rhesus (Macaca Mulatta) H3 receptor (Macaca mulatta, UniProt Q865E1); assay: Rhesus H3 radioligand binding assay ([3H]-Methylhistamine displacement, WGA SPA beads); parameters: species or system rhesus monkey (Macaca Mulatta); conditions: Table 2; procedure of Example 42
Description: (Genbank #AY231164). Stably transfected cultures were amplified in tissue culture flasks by standard tissue culture methods and induced to express rhesus H3 by exposure to 500 ng/ml tetracycline (Cellgro) for 24 hours. After induction, cells were dissociated from flasks utilizing Cell Stripper (Cellgro). Cells were centrifuged (1K×g, 5 min) and pellet frozen in an ethanol-dry ice bath to disrupt cell membranes. Frozen cell pellet was re-suspended in 5 mM HEPES (pH 7.4, Invitrogen) at 10 ml/1000 cm2 of harvested cells. The cell suspension was drawn through an 18 gauge needle (2-3×) followed by a 23 gauge needle (2-3×) to further disrupt cell membranes. The cell suspension was centrifuged (40K×g, 30 min). Cell membrane pellet was re-suspended in 5 mM HEPES (pH 7.4, Invitrogen) at a final protein concentration of 10 mg/ml. Rhesus H3 membranes were stored under liquid nitrogen prior to use in [3H]-Methylhistamine and GTPγS radioligand binding assays.
Rhesus H3 radioligand binding assay was performed using rhesus H3 receptor membranes (prepared as described above), [3H]-Methylhistamine (Perkin Elmer) and WGA SPA beads (wheat germ agglutinin scintillation proximity assay) beads (Amersham). The assay was performed in 96-well Opti-Plates (Packard). Each reaction contained 50 μl rhesus H3 membranes (20-30 μg total protein), 50 μl WGA SPA beads (0.1 μg) and 50 μl of 83 Ci/mmol [^3H]-Methylhistamine (final concentration 2 nM) and 50 μl of tested compound. The compounds of this invention and/or vehicle were diluted with binding buffer from 10 mM DMSO stocks. Assay plates were sealed with TopSeal (Perkin Elmer) and mixed on shaker (25° C., 1 hour). Assay plates were read on TopCount scintillation counter (Packard). Results were analyzed by Hill transformation and Ki values were determined by Cheng-Prusoff equation.

MCH receptor = MCH receptor (Homo sapiens, UniProt Q99705); assay: MCH receptor [125J]-ligand binding filtration assay; conditions: 10 μM test compound; percent inhibition of ligand binding
Chain of MCH receptor (Q99705 whole entry): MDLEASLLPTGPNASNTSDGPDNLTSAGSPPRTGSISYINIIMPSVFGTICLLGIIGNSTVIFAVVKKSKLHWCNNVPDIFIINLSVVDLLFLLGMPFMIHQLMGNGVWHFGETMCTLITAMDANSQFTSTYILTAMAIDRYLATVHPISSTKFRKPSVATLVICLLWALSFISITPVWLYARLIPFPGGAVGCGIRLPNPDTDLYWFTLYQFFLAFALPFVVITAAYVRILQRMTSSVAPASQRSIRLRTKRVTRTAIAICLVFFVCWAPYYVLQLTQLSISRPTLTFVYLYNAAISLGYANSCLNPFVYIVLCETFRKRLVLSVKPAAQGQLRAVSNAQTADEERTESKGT
Description: The activity of the compounds of this invention at the MCH receptor site, if any was measured by the procedures as set forth below. • Test Compounds The compounds of this invention were stored in a 96-well microtiter plates (1 μL, 10 mM, 100% DMSO). Each of the test sample was diluted with 249 μL of 100% DMSO (dilution 1:250). […] Blank: Assay buffer containing 0.4% DMSO were transferred to the dilution microtiter plates for blanks • Assay Procedure: The filter plates with […] of 0.5% PEI-solution/well were incubated for 2 hours at room temperature. PEI was removed by vacuum filtration just before pipetting (Univac Polyfiltronic/Whatman). The solution of the compound as prepared above (50 μL), or MCH ([…]) or Puffer/DMSO (positive control) were added to 96-well round bottom microtiter plate. Then 50 μl of [^125J]-ligand solution was added followed by 100 μl of membrane suspension. The plates were closed with the lids, and incubated for 60 min. at 25° C. The samples were transferred to GF/B filter plate. The reaction mixture was removed by vacuum filtration, washed 4× with 300 μL ice-cold washing buffer and the washing solution was removed by vacuum filtration. The rubber layer at the bottom of the plate was then removed and the filters were dried over night at room temperature. 25 μL of scintillation cocktail was added and the plates were sealed and, plate frames were added and incubated for 1 hour at room temperature. The radioactivity was then measured, settings ^125J standard, 30 sec./well.

Chain of rhesus (Macaca Mulatta) H3 receptor (Q865E1 1-445): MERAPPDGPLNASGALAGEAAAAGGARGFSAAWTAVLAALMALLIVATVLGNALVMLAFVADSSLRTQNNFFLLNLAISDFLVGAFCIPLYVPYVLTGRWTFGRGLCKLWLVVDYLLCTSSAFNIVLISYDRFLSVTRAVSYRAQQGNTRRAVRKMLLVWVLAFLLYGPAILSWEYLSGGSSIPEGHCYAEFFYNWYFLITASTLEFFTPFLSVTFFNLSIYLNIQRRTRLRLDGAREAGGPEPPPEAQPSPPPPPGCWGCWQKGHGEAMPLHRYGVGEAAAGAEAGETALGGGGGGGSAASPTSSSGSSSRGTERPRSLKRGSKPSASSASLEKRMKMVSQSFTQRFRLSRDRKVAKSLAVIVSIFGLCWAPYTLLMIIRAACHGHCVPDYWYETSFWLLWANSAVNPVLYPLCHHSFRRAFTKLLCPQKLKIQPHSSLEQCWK

Ki [1] | inhibition at 10 µM (MCH receptor) | SMILES
6.8 nM | 8.6% | Cc1cc(N2CCC(N3CCCC3C)C2)ccc1NC(=O)C1CCOCC1 (stereo not shown) [Example 24, Tetrahydro-pyran-4-carboxylic acid [2-methyl-4-(2-methyl[1,3′]bipyrrolidinyl-1′-yl)-phenyl]-amide trifluoroacetate]
4.6 nM | 7% | Cc1nc(C(=O)Nc2ccc(N3CC[C@H](N4CCC[C@@H]4C)C3)cc2C)co1 [Example 28, 2-Methyl-oxazole-4-carboxylic acid [2-methyl-4-(2(S)-methyl-[1,3′(S)]bipyrrolidinyl-1′-yl)-phenyl]-amide trifluoroacetate]
126 nM | 16.8% | Cc1cc(NC(=O)c2cn[nH]c2)ccc1N1CCC(N2CCCC2C)C1 (stereo not shown) [Example 34, 1H-Pyrazole-4-carboxylic acid [3-methyl-4-(2-methyl-[1,3′]bipyrrolidinyl-1′-yl)-phenyl]-amide trifluoroacetate]
1.1 nM | 3.1% | Cc1cc(C(=O)Nc2ccc(N3CC[C@H](N4CCC[C@@H]4C)C3)cc2C)on1 [Example 5, 3-Methyl-isoxazole-5-carboxylic acid [2-methyl-4-(2S-methyl-[1,3′ S]bipyrrolidinyl-1′-yl)-phenyl]-amide trifluoro-acetate]
4.7 nM | 28.3% | Cc1cc(C(=O)Nc2ccc(N3CC[C@H](N4CCC[C@@H]4C)C3)cc2C)n[nH]1 [Example 14, 5-Methyl-1H-pyrazole-3-carboxylic acid [2-methyl-4-(2(2S)-methyl-[1,3′(3′S)]bipyrrolidinyl-1′-yl)-phenyl]-amide]
17.3 nM | 5.6% | Cc1cc(C(=O)Nc2ccc(N3CC[C@H](N4CCC[C@@H]4C)C3)c(C)c2)n[nH]1 (stereo in doubt) [Example 22, 5-Methyl-1H-pyrazole-3-carboxylic acid [3-methyl-4-(2-methyl-[1,3′]bipyrrolidinyl-1′-yl)-phenyl]-amide trifluoroacetate]
14.2 nM | 34.4% | Cc1cc(N2CCC(N3CCCC3C)C2)ccc1NC(=O)c1cc(-c2ccncc2)n[nH]1 (stereo not shown) [Example 37, 5-Pyridin-4-yl-2H-pyrazole-3-carboxylic acid [2-methyl-4-(2-methyl-[1,3′]bipyrrolidinyl-1′-yl)-phenyl]-amide trifluoroacetate]
15.7 nM | 11.4% | CC1CCCN1C1CCN(c2ccc(NC(=O)C3C[C@@H]4CC[C@H]3C4)cc2)C1 (stereo partly drawn) [Example 29, (1S,4R)-Bicyclo[2.2.1]heptane-2-carboxylic acid [4-(2-methyl-[1,3′]bipyrrolidinyl-1′-yl)-phenyl]-amide trifluoroacetate]
9.6 nM | 4% | Cc1cc(N2CCC(N3CCCC3C)C2)ccc1NC(=O)C1CC1 (stereo not shown) [Example 10, Cyclopropane carboxylic acid [2-methyl-4-(2-methyl-[1,3′]bipyrrolidinyl-1′-yl)-phenyl]-amide trifluoro-acetate]
17 nM | 2.7% | Cc1cc(NC(=O)C2CCOCC2)ccc1N1CCC(N2CCCC2C)C1 (stereo not shown) [Example 11, Tetrahydro-pyran-4-carboxylic acid [3-methyl-4-(2-methyl[1,3′]bipyrrolidinyl-1′-yl)-phenyl]-amide trifluoro-acetate]
307 nM | 23.5% | Cc1cc(C(=O)Nc2ccc(N3CCC(N4CCCC4C)C3)cc2C(F)(F)F)n[nH]1 (stereo not shown) [Example 35, 5-Methyl-1H-pyrazole-3-carboxylic acid [4-(2-methyl-[1,3′]bipyrrolidinyl-1′-yl)-2-trifluoromethyl-phenyl]-amide trifluoroacetate]
0.4 nM | 0.7% | Cc1cc(N2CC[C@H](N3CCC[C@@H]3C)C2)ccc1NC(=O)c1c(C)noc1C [Example 1, 3,5-Dimethyl-isoxazole-4-carboxylic acid [2-methyl-4-(2(2S)-methyl-[1,3′(3′S)]bipyrrolidinyl-1′-yl)-phenyl]-amide]
0.6 nM | -0.8% | Cc1cc(N2CC[C@H](N3CCC[C@@H]3C)C2)ccc1NC(=O)C1CC2CCC1C2 (stereo partly drawn) [Example 3, Bicyclo[2.2.1]heptane-2-carboxylic acid [2-methyl-4-(2S-methyl-[1,3′S]bipyrrolidinyl-1′-yl)-phenyl]-amide trifluoro acetate]
130 nM | 11.2% | Cc1cc(NC(=O)C2C[C@@H]3CC[C@H]2C3)ccc1N1CCC(N2CCCC2C)C1 (stereo partly drawn) [Example 23, (1S,4R)-Bicyclo[2.2.1]heptane-2-carboxylic acid [3-methyl-4-(2-methyl-[1,3′]bipyrrolidinyl-1′-yl)-phenyl]-amide trifluoroacetate]
2.1 nM | 9.4% | Cc1noc(C)c1C(=O)Nc1ccc(N2CCC(N3CCCC3C)C2)cc1 (stereo not shown) [Example 26, 3,5-Dimethyl-isoxazole-4-carboxylic acid [4-(2-methyl-[1,3′]bipyrrolidinyl-1′-yl)-phenyl]-amide trifluoroacetate]
17.7 nM | -1.3% | Cc1cc(NC(=O)C2CC2)ccc1N1CCC(N2CCCC2C)C1 (stereo not shown) [Example 41, Cyclopropanecarboxylic acid [3-methyl-4-(2-methyl[1,3′]bipyrrolidinyl-1′-yl)-phenyl]-amide trifluoroacetate]
1 nM | -1.6% | Cc1cc(N2CC[C@H](N3CCC[C@@H]3C)C2)ccc1NC(=O)C1CCOCC1 [Example 4, Tetrahydro-pyran-4-carboxylic acid [2-methyl-4-(2(2S)-methyl-[1,3′(3′S)]bipyrrolidinyl-1′-yl)-phenyl]-amide]
22.1 nM | 4.8% | CC1CCCN1C1CCN(c2ccc(NC(=O)c3cn[nH]c3)cc2)C1 (stereo not shown) [Example 13, 1H-Pyrazole-4-carboxylic acid [4-(2-methyl-[1,3′]bipyrrolidinyl-1′-yl)-phenyl]-amide trifluoro-acetate]

SMILES | Ki [1] | inhibition at 10 µM (MCH receptor)
CC1CCCN1C1CCN(c2ccc(NC(=O)C3C(C)(C)C3(C)C)cc2)C1 (stereo not shown) [Example 25, 2,2,3,3-Tetramethyl-cyclopropanecarboxylic acid [4-(2-methyl-[1,3′]bipyrrolidinyl-1′-yl)-phenyl]-amide trifluoroacetate] | 144 nM | 15%
Cc1cc(N2CCC(N3CCCC3C)C2)ccc1NC(=O)C1C(C)(C)C1(C)C (stereo not shown) [Example 17, 2,2,3,3-Tetramethyl-cyclopropanecarboxylic acid [2-methyl-4-(2-methyl-[1,3′]bipyrrolidinyl-1′-yl)-phenyl]-amide trifluoroacetate] | 37.3 nM | 11.5%
Cc1cc(NC(=O)C2C(C)(C)C2(C)C)ccc1N1CCC(N2CCCC2C)C1 (stereo not shown) [Example 27, 2,2,3,3-Tetramethyl-cyclopropanecarboxylic acid [3-methyl-4-(2-methyl-[1,3′]bipyrrolidinyl-1′-yl)-phenyl]-amide trifluoroacetate] | 65.5 nM | 36%
Cc1cc(N2CC[C@H](N3CCC[C@@H]3C)C2)ccc1NC(=O)C1CCCC1 [Example 39, Cyclopentane carboxylic acid [2-methyl-4-(2(S)-methyl-[1,3′ (S)]bipyrrolidinyl-1′-yl)-phenyl]-amide trifluoroacetate] | 0.5 nM | -7.2%
Cc1cc(N2CC[C@H](N3CCC[C@@H]3C)C2)ccc1NC(=O)C1C(C)(C)C1(C)C [Example 16, 2,2,3,3-Tetramethyl-cyclopropanecarboxylic acid [2-methyl-4-(2(S)-methyl-[1,3′(S)]bipyrrolidinyl-1′-yl)-phenyl]-amide trifluoroacetate] | 0.8 nM | 5.8%
